{"source": "patent US6482934B1", "about": "“Methods and compositions for detecting and treating kidney diseases associated with adhesion of crystals to kidney cells” (ARCH Development Corp., priority 1995, dated 2002)", "key": {"[1]": {"test_system": "BSC-1 cells", "assay": "Crystal endocytosis by BSC-1 cells", "type": "cell-based, African green monkey", "description": "(§1) Renal epithelial cells of the nontransformed African green monkey line (BSC-1) were used. Cells were grown in Dulbecco-Vogt modified Eagle's medium containing 25 mM glucose (DMEM), 1.6 μM biotin and 1% calf serum at 38° C. in a CO2 incubator. Under these conditions, BSC-1 cells achieved confluence at 10^6 cells per 60-mm plastic dish (Nunc). High-density, quiescent cultures were prepared by plating 2×10^6 cells in a 60-mm dish. The spent medium was changed after 3 days so that there were 3-4×10^6 cells/dish 6 days later. Medium was then aspirated and replaced with fresh medium containing […] and 0.01% calf serum; 3 days later the quiescent cultures were used for study.\n(§2) At specified times after addition of crystals to high-density, quiescent cultures the medium was aspirated and a solution of crystalline trypsin was used to detach cells which were then inspected under a polarizing microscope. One hundred cells from each culture were counted, and each cell was scored for the presence of one or more internalized crystal(s)."}, "[2]": {"test_system": "BSC-1 cells", "assay": "[14C]COM crystal adhesion to BSC-1 cell monolayers", "type": "cell-based, African green monkey", "description": "as §1\n(§3) Crystals are sterilized by heating to 180° C. overnight.\n(§4) High-density, quiescent cultures of BSC-1 cells, MDCK cells, or Balb/c3T3 fibroblasts are prepared. At the time of assay, the medium is aspirated and replaced with 5 ml of phosphate-buffered saline (PBS) (10 mM Na2PO4, 155 mM NaCl, 5.4 mM KCl, pH 7.4 at 37° C.) to which the compound under investigation is added. […] The culture dishes are gently agitated for 5 seconds to uniformly distribute crystals which subsequently settle to the surface of the cell monolayer under the force of gravity. After two minutes buffer is aspirated and the cells are then washed three times with PBS (5 ml). The cell monolayer is then scraped directly into a scintillation vial containing 6 N HCl (0.5 ml) to which 4.5 ml of Ecoscint (National Diagnostics, E. Palmetto, Fla.) is added, and the amount of radioactivity is measured as described by Riese, et al. (1992)."}, "[3]": {"test_system": "BSC-1 cells", "assay": "Endocytosis of agent-coated COM crystals by BSC-1 cells", "type": "cell-based, African green monkey", "conditions": "THP 5×10^−8 M; 6×10^−10M in the medium", "from_the_text": "as §2"}, "[4]": {"test_system": "MDCK cells", "assay": "[14C]COM crystal adhesion to MDCK cells", "type": "cell-based, canine", "conditions": "0.55 μM heparin", "description": "(§5) Madin-Darby Canine Kidney (MDCK) cells were grown in DMEM containing 2% calf serum and 1.6 μM biotin as described previously. To prepare high-density, quiescent cultures 2×10^6 cells/60-mm dish were plated in DMEM containing 2% calf serum and 1.6 μM biotin. The next day medium was aspirated and replaced with fresh medium containing 0.5% calf serum and biotin. One day later the cultures were used for study.\nas §3, §4"}, "[5]": {"test_system": "Balb/c3T3 fibroblasts", "assay": "[14C]COM crystal adhesion to 3T3 fibroblasts", "type": "cell-based", "conditions": "0.55 μM heparin; COM crystals 200 μg/ml", "description": "(§6) Balb/c3T3 fibroblasts were grown in DMEM containing 10% calf serum. To prepare high-density, quiescent cultures, 7×10^5 cells were plated per 60-mm dish. Two days later the medium was aspirated and replaced with fresh medium containing 1% calf serum and 1.6 μM biotin; the cells were used one day later when a density of […] was reached.\nas §3, §4"}, "[6]": {"test_system": "MDCK cells", "assay": "Crystal endocytosis by MDCK cells", "type": "cell-based, canine", "conditions": "heparin; COM crystals 200 μg/ml", "description": "as §5, §2"}, "[7]": {"test_system": "BSC-1 cells", "assay": "Adhesion of agent-coated COM crystals to BSC-1 cells", "type": "cell-based, African green monkey", "conditions": "compared with uncoated control crystals", "description": "Each tube is then centrifuged at 3000 g for 5 minutes. The supernatant is gently aspirated and replaced with a supersaturated calcium oxalate solution to resuspend the coated crystals. To assure removal of any nonabsorbed compound, crystals are resuspended and washed three times in succession. Cell-associated radioactivity is determined 2 minutes after addition of these coated crystals as described herein."}, "[8]": {"test_system": "Balb/c3T3 fibroblasts", "assay": "Crystal endocytosis by Balb/c3T3 fibroblasts", "type": "cell-based", "conditions": "heparin; COM crystals 200 μg/ml", "description": "as §6, §2"}}, "note": "Read-outs that look alike come from different tables or passages of the source."}
{"substance": "THP: urinary Tamm-Horsfall glycoprotein, most abundant protein in human urine", "values": [{"measurement": "decrease in COM crystal endocytosis", "setting": "[1]; THP 5×10−8 M", "result": 34, "unit": "%"}, {"measurement": "decrease in COM crystal endocytosis", "setting": "[1]; THP 10^−8 M", "result": 21, "unit": "%"}, {"measurement": "effect on adhesion of COM crystals to BSC-1 cells (in words)", "setting": "[2]", "result": "no effect"}, {"measurement": "Half-maximal concentration", "setting": "[2]; concentration that inhibited crystal adhesion by 50%, N.I. = noninhibitory", "result": "N.I."}, {"measurement": "effect on adhesion of COM crystals to BSC-1 cells (in words)", "setting": "[2]; listed as Tamm-Horsfall glycoprotein", "result": "did not"}, {"measurement": "Langmuir affinity constant (dissociation constant)", "setting": "[2]; slope of Langmuir isotherm plot of crystal adhesion, N.I. = noninhibitory", "result": "N.I."}, {"measurement": "endocytosis of crystals incubated with THP and added directly without centrifuging", "setting": "[3]", "result": "to the same extent as uncoated crystals"}]}
{"substance": "heparin", "values": [{"measurement": "combined inhibitory effects on COM crystal endocytosis", "setting": "[1]; RGDS 10 μg/ml, heparin 5 μg/ml and TGF-β2 2 ng/ml", "result": "not additive"}, {"measurement": "decrease in COM crystal endocytosis compared to control", "setting": "[1]; heparin 2 μg/ml", "result": 36, "unit": "%"}, {"measurement": "effect on COM crystal uptake at higher concentration", "setting": "[1]; heparin as high as 100 μg/ml", "result": "did not inhibit uptake further"}, {"measurement": "maximal inhibition of adhesion of COM crystals to MDCK cells", "setting": "[4]", "result": 89, "unit": "%"}, {"measurement": "decrease in adhesion of COM crystals to 3T3 fibroblasts", "setting": "[5]", "result": 85, "unit": "%"}, {"measurement": "inhibition of COM crystal endocytosis in MDCK cells", "setting": "[6]", "result": 60, "unit": "%"}, {"measurement": "effect on adhesion of COM crystals to BSC-1 cells (in words)", "setting": "[2]", "result": "blocked"}, {"measurement": "IC50", "setting": "[2]; concentration that inhibited crystal adhesion by 50%, N.I. = noninhibitory, read-out: Half-maximal concentration", "result": 15, "unit": "nM"}, {"measurement": "adhesion of crystals after heparin added later than crystals", "setting": "[2]; heparin 10 μg/ml (0.55 μM) added 1 to 30 minutes after crystals, measured after 60 minutes", "result": "appeared to stop immediately"}, {"measurement": "displacement of crystals already bound to cells", "setting": "[2]; heparin 10 μg/ml present for up to an additional 55 minutes", "result": "did not appear to displace crystals already bound to cells"}, {"measurement": "decrease in adherence of COM crystals", "setting": "[2]; heparin 18,000 Da at 0.006 μM", "result": 33, "unit": "%"}, {"measurement": "Maximal inhibition of COM crystal adhesion", "setting": "[2]; heparin 18,000 Da at concentrations above 0.028 μM", "result": 95, "unit": "%"}, {"measurement": "Kd", "setting": "[2]; slope of Langmuir isotherm plot of crystal adhesion, N.I. = noninhibitory, read-out: Langmuir affinity constant (dissociation constant)", "result": 43, "unit": "nM"}, {"measurement": "adhesion of crystals previously coated with the molecule", "setting": "[7]", "result": "less than control"}, {"measurement": "inhibition of COM crystal endocytosis in fibroblasts", "setting": "[8]", "result": 24, "unit": "%"}]}
